Data reported in patent US4758579A, “Fluoroalkoxy substituted benzimidazoles useful as gastric acid secretion inhibitors” (BYK Gulden Lomberg Chemische Fabrik GmbH, priority 1984, dated 1988).

Columns and labels:
[1] = test system: formation of gastric lesions; assay: Antiulcerogenic action in Shay rats: protective action on the stomach (lesion index after pylorus ligature and oral acetylsalicylic acid); format: in vivo; conditions: rat, p.o., pylorus ligature (4 hours; Shay rat) + 100 mg/kg acetylsalicylic acid, dose reducing lesion index by 50% vs control, read-out: Protective action on the stomach (rat) inhibition of the lesion index ED50
Method: (§1) The compounds according to the invention investigated appear in the following table:
(§2) The influence of the compounds investigated on the formation of gastric lesions triggered by pylorus ligature (4 hours; Shay rat) and oral administration of 100 mg/kg of acetylsalicylic acid on the inhibition of gastric secretion (HCl) in rats during 4 hours is shown in the following table:
(§3) The antiulcerogenic action was tested in Shay rats:
(§4) Ulcers were provoked in rats which had fasted for 24 hours (female, 180-200 g, 4 animals per cage on a high grid) by pylorus ligature (under diethyl ether anesthesia) and oral administration of 100 mg/10 ml/kg of acetylsalicylic acid. The substances to be tested are administered orally (10 ml/kg) one hour before the pylorus ligature. The wound is closed by means of Michel clamps. 4 hours thereafter, the animals are sacrificed under ether anesthesia by atlas dislocation and the stomach is resected. The stomach is opened longitudinally and fixed to a cork plate, after first determining the amount of secreted gastric juice (volume) and later its HCl content (titration with sodium hydroxide solution). The number and size (=diameter) of ulcers present are determined with a stereomicroscope with 10-fold magnification. The product of the degree of severity (according to the following points scale) and number of ulcers serves as the individual lesion index.
ulcer diameter 0.1-1.4 mm
(§5) The reduction in the average lesion index of each treated group compared with that of the control group (=100%) serves as a measure of the antiulcerogenic effect.

[2] = test system: HCl secretion in the stomach; assay: Inhibition of gastric secretion (HCl) in the stomach of the Shay rat over 4 hours; format: in vivo; conditions: total of 4 hours; for ED25 / ED50: po; for ED25: dose reducing HCl secretion by 25% vs control; for ED50: dose reducing HCl secretion by 50% vs control; for % inhibition of HCl secretion: after administration of the antiulcerous ED50
Method: as §1, §2
ED25+ and ED50+ = dose which reduces the lesion index and the HCL
secretion (over 4 hours) in the rat stomach by 25% and 50% in the treated
group in comparison with the control group.
(++) = after administration of the antiulcerous ED50
as §3, §4, §5

SMILES	ED50 [1]	ED25 [2]	ED50 [2]	% inhibition of HCl secretion [2]
COc1cnc(C[S+]([O-])c2nc3cc(OC(F)(F)F)ccc3[nH]2)cc1OC (centres unmarked) [Serial No. 1, 2-[(4,5-Dimethoxy-2-pyridyl)methylsulfinyl]-5-trifluoromethoxy-1H-benzimidazole]	0.6 mg/kg	1 mg/kg	~3 mg/kg	15%
COc1cnc(CSc2nc3cc4c(cc3[nH]2)OC(F)(F)O4)cc1OC [Serial No. 4, 2,2-difluoro-6-[(4,5-dimethoxy-2-pyridyl)methylthio]-5H-[1,3]-dioxolo[4,5-f]benzimidazole]	3.5 mg/kg	3 mg/kg	6.5 mg/kg	28%
COc1cnc(C[S+]([O-])c2nc3cc(OC(F)(F)F)ccc3[nH]2)c(C)c1OC (centres unmarked) [Serial No. 2, 2-[(4,5-Dimethoxy-3-methyl-2-pyridyl)methylsulfinyl]-5-trifluoromethoxy-1H-benzimidazole]	0.8 mg/kg	0.7 mg/kg	1.7 mg/kg	25%
COc1cnc(C[S+]([O-])c2nc3cc(OC(F)(F)C(F)F)ccc3[nH]2)cc1OC (centres unmarked) [Serial No. 3, 2-[(4,5-dimethoxy-2-pyridyl)methylsulfinyl]-5-(1,1,2,2-tetrafluoroethoxy)-1H-benzimidazole]	0.6 mg/kg	~1 mg/kg	3.4 mg/kg	18%
COc1cnc(C[S+]([O-])c2nc3cc4c(cc3[nH]2)OC(F)(F)O4)cc1OC (centres unmarked) [Serial No. 5, 2,2-Difluoro-6-[(4,5-dimethoxy-2-pyridyl)methylsulfinyl]-5H-[1,3]-dioxolo[4,5-f]benzimidazole]	~1 mg/kg	1 mg/kg	3 mg/kg	25%
